Patent US9096624B2 (OSI Pharmaceuticals, LLC, priority 2009, dated 2015)

How the values were obtained:
FAK [1] = molecular target: T1, FAK (Homo sapiens, UniProt Q05397); assay: biochemical
FAK [2] = molecular target: T1, FAK; assay: Cell-based capture ELISA for inhibition of FAK autophosphorylation [pY397] in MiaPaCa2 cells
Experimental: Cell-Based Assays for Inhibition of FAK Autophosphorylation: MiaPaCa2 and U87MG
ELISA kit from Invitrogen (KHO0441).
Reagents Provided in Biosource FAK [pY397]
The cells were then suspended in cell assay medium.

[3] = MIA-PaCa2 cells on fibronectin, 2 h, no plasma, read-out: Mean FAK Cell Mechanistic IC50 MIA-PaCa2
[4] = MIA-PaCa2 cells, + 50% human plasma, read-out: Mean FAK Cell Mechanistic IC50 + 50% hP MIA-PaCa2
[5] = MIA-PaCa2 cells, + 50% mouse plasma (Table 2), read-out: Mean FAK Cell Mechanistic IC50 + 50% mP MIA-PaCa2

T1 sequence (Q05397 whole entry): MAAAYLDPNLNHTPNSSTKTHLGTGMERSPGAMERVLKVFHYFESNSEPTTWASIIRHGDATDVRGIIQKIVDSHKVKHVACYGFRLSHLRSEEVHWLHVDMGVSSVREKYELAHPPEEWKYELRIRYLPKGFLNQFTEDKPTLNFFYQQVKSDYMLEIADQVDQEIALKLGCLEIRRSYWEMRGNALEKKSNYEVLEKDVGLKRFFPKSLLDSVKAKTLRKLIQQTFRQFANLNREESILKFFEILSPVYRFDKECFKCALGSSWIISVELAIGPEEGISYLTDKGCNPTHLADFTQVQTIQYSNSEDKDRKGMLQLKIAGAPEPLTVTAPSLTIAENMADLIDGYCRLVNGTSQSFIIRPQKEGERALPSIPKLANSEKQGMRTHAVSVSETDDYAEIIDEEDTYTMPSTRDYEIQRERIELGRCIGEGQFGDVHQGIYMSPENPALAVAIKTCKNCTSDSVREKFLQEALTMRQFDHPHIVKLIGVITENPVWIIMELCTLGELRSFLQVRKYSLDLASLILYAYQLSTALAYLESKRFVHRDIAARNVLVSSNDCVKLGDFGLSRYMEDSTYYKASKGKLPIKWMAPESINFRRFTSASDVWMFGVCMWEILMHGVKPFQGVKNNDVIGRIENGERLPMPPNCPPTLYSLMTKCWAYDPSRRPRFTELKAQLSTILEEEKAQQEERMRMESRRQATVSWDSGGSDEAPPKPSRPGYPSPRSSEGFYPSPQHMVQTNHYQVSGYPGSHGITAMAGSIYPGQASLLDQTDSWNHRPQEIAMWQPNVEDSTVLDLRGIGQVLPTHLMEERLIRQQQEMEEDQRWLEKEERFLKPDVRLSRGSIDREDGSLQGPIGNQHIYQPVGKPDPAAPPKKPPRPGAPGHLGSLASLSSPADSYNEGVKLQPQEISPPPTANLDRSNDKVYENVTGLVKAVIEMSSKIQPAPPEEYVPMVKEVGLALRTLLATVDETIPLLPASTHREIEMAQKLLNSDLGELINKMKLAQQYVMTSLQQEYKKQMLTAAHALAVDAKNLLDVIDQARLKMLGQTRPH

SMILES	IC50 (FAK [2]; [5])	IC50 (FAK [1])	IC50 (FAK [2]; [3])	IC50 (FAK [2]; [4])
COP(=O)(OC)c1ccc(Nc2ncc(C(F)(F)F)c(NCc3cccnc3N(C)S(C)(=O)=O)n2)cc1 [Example 36, Dimethyl [4-({4-[({2-[methyl(methylsulfonyl)amino]pyridin-3-yl}methyl)amino]-5-(trifluoromethyl)pyrimidin-2-yl}amino)phenyl]phosphonate]	< 1 µM	< 1 µM	–	–
CCOP(=O)(OCC)c1cccc(Nc2ncc(C(F)(F)F)c(NCc3cccnc3N(C)S(C)(=O)=O)n2)c1 [Example 39, diethyl [3-({4-[({2-[methyl(methylsulfonyl)amino]pyridin-3-yl}methyl)amino]-5-(trifluoromethyl)pyrimidin-2-yl}amino)phenyl]phosphonate]	1 to 10 µM	< 1 µM	–	–
CCOP(=O)(O)c1ccc(Nc2ncc(C(F)(F)F)c(NCc3cccnc3N(C)S(C)(=O)=O)n2)cc1 [Example 40, Ethyl hydrogen [4-({4[({2-[methyl(methylsulfonyl)amino]pyridin-3-yl}methyl)amino]-5-(trifluoromethyl)pyrimidin-2-yl}amino)phenyl]phosphonate]	–	< 1 µM	1 to 10 µM	1 to 10 µM
CCOP(=O)(O)Cc1ccc(Nc2ncc(C(F)(F)F)c(NCc3cccnc3N(C)S(C)(=O)=O)n2)cc1 [Example 42, Ethyl hydrogen [4-({4-[({2-[methyl(methylsulfonyl)amino]pyridin-3-yl}methyl)amino]-5-(trifluoromethyl)pyrimidin-2-yl}amino)benzyl]phosphonate]	–	< 1 µM	1 to 10 µM	1 to 10 µM
CCOP(=O)(O)Cc1cccc(Nc2ncc(C(F)(F)F)c(NCc3cccnc3N(C)S(C)(=O)=O)n2)c1 [Example 44, Ethyl hydrogen [3-({4[({2-[methyl(methylsulfonyl)amino]pyridin-3-yl}methyl)amino]-5-(trifluoromethyl)pyrimidin-2-yl}amino)benzyl]phosphonate]	–	< 1 µM	> 10 µM	> 10 µM
CCOP(C)(=O)Cc1ccc(Nc2ncc(C(F)(F)F)c(NCc3cccnc3N(C)S(C)(=O)=O)n2)cc1 (stereo not shown) [Example 45, Ethyl methyl[4-({4-[({2-[methyl(methylsulfonyl)amino]pyridin-3-yl}methyl)amino]-5-(trifluoromethyl)pyrimidin-2-yl}amino)benzyl]phosphinate]	–	< 1 µM	< 1 µM	< 1 µM
CCOP(=O)(Cc1ccc(Nc2ncc(C(F)(F)F)c(NCc3cccc([S+](C)[O-])c3)n2)cc1)OCC (stereo not shown) [Example 47, diethyl (4-{[4-{[3-(methylsulfinyl)benzyl]amino}-5-(trifluoromethyl)pyrimidin-2-yl]amino}benzyl)phosphonate]	1 to 10 µM	< 1 µM	–	–
CCOP(=O)(Cc1ccc(Nc2ncc(Cl)c(Nc3ccccc3C(=O)NC)n2)cc1)OCC [Example 48, Diethyl {4-[(5-chloro-4-{[2-(methylcarbamoyl)phenyl]amino}pyrimidin-2-yl)amino]benzyl}phosphonate]	1 to 10 µM	< 1 µM	–	–
CCOP(=O)(Cc1ccc(Nc2ncc(Br)c(Nc3ccccc3C(=O)NC)n2)cc1)OCC [Example 49, Diethyl {4-[(5-bromo-4-{[2-(methylcarbamoyl)phenyl]amino}pyrimidin-2-yl)amino]benzyl}phosphonate]	–	< 1 µM	< 1 µM	< 1 µM

Now from value to compound, other results behind:

IC50 (FAK [2]; [5])	SMILES	IC50 (FAK [1])	IC50 (FAK [2]; [3])	IC50 (FAK [2]; [4])
1 to 10 µM	CC(C)COP(=O)(Cc1ccc(Nc2ncc(C(F)(F)F)c(NCc3cccnc3N(C)S(C)(=O)=O)n2)cc1)OCC(C)C [Example 30, bis(2-methylpropyl) [4-({4-[({2-[methyl(methylsulfonyl)amino]pyridin-3-yl}methyl)amino]-5-(trifluoromethyl)pyrimidin-2-yl}amino)benzyl]phosphonate]	< 1 µM	1 to 10 µM	1 to 10 µM
< 1 µM	CN(c1ncccc1CNc1nc(Nc2ccc(CP3(=O)OCCCO3)cc2)ncc1C(F)(F)F)S(C)(=O)=O [Example 31, N-methyl-N-[3-({[2-({4-[(2-oxido-1,3,2-dioxaphosphinan-2-yl)methyl]phenyl}amino)-5-(trifluoromethyl)pyrimidin-4-yl]amino}methyl)pyridin-2-yl]methanesulfonamide]	< 1 µM	< 1 µM	< 1 µM
< 1 µM	CN(c1ncccc1CNc1nc(Nc2ccc(CP3(=O)OCC(C)(C)CO3)cc2)ncc1C(F)(F)F)S(C)(=O)=O [Example 32, N-[3-({[2-({4-[(5,5-dimethyl-2-oxido-1,3,2-dioxaphosphinan-2-yl)methyl]phenyl}amino)-5-(trifluoromethyl)pyrimidin-4-yl]amino}methyl)pyridin-2-yl]-N-methylmethanesulfonamide]	< 1 µM	< 1 µM	< 1 µM
> 10 µM	CN(c1ncccc1CNc1nc(Nc2ccc(CP(=O)(OCCc3ccsc3)OCCc3ccsc3)cc2)ncc1C(F)(F)F)S(C)(=O)=O [Example 33, bis[2-(thiophen-3-yl)ethyl] [4-({4-[({2-[methyl(methylsulfonyl)amino]pyridin-3-yl}methyl)amino]-5-(trifluoromethyl)pyrimidin-2-yl}amino)benzyl]phosphonate]	< 1 µM	–	–
1 to 10 µM	CN(c1ncccc1CNc1nc(Nc2ccc(CP(=O)(OCC3CCC3)OCC3CCC3)cc2)ncc1C(F)(F)F)S(C)(=O)=O [Example 34, bis(cyclobutylmethyl) [4-({4-[({2-[methyl(methylsulfonyl)amino]pyridin-3-yl}methyl)amino]-5-(trifluoromethyl)pyrimidin-2-yl}amino)benzyl]phosphonate]	< 1 µM	–	–
1 to 10 µM	CC(C)OP(=O)(Cc1cccc(Nc2ncc(C(F)(F)F)c(NCc3cccnc3N(C)S(C)(=O)=O)n2)c1)OC(C)C [Example 35, Dipropan-2-yl [3-({4-[({2-[methyl(methylsulfonyl)amino]pyridin-3-yl}methyl)amino]-5-(trifluoromethyl)pyrimidin-2-yl}amino)benzyl]phosphonate]	< 1 µM	–	–
1 to 10 µM	CCCOP(=O)(OCCC)c1ccc(Nc2ncc(C(F)(F)F)c(NCc3cccnc3N(C)S(C)(=O)=O)n2)cc1 [Example 37, dipropyl [4-({4-[({2-[methyl(methylsulfonyl)amino]pyridin-3-yl}methyl)amino]-5-(trifluoromethyl)pyrimidin-2-yl}amino)phenyl]phosphonate]	< 1 µM	–	–
1 to 10 µM	CC(C)OP(=O)(OC(C)C)c1ccc(Nc2ncc(C(F)(F)F)c(NCc3cccnc3N(C)S(C)(=O)=O)n2)cc1 [Example 38, dipropan-2-yl [4-({4-[({2-[methyl(methylsulfonyl)amino]pyridin-3-yl}methyl)amino]-5-(trifluoromethyl)pyrimidin-2-yl}amino)phenyl]phosphonate]	< 1 µM	–	–
1 to 10 µM	CN(c1ncccc1CNc1nc(Nc2cccc(CP(=O)(O)O)c2)ncc1C(F)(F)F)S(C)(=O)=O [Example 43, [3-({4-[({2-[Methyl(methylsulfonyl)amino]pyridin-3-yl}methyl)amino]-5-(trifluoromethyl)pyrimidin-2-yl}amino)benzyl]phosphonic acid]	< 1 µM	1 to 10 µM	1 to 10 µM
